Assay results as given in patent publication US11000033B2, “Ketone or oxime compound, and herbicide” (NISSAN CHEMICAL CORPORATION, priority 2014, dated 2021).

What was measured:
Type in all cases: in vivo
Chenopodium album [1] = experiment: Test Example 5: herbicidal effect by foliage application, plastic box (symbol O); conditions: 320 g/ha, 3 weeks after application
In short: (§1)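 Herbicide, formulated as an emulsion and diluted in water, is sprayed onto the aerial parts of 14-day seedlings. These were grown at 25° C. to 30° C. in sterilized diluvial soil; effects are graded after 3 weeks.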

Alopecurus myosuroides = experiment: Test Example 4: herbicidal effect by soil treatment (symbol J)
In short: (§2)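 Seeds were sown in sterilized diluvial soil, covered with about 1.5 cm of soil, and the soil surface was sprayed with a water-diluted emulsion of the compound at a predetermined rate. Plants grew in a greenhouse at 25° C. to 30° C.; effects were scored visually 3 weeks after application.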

transplanted rice plant = experiment: Test Example 1: effect on crop, application before weed generation in submerged conditions (symbol a); conditions: application herbicide amount 320 g/ha
In short: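 Rice at 2.5 leaf stage transplanted into submerged soil (4 cm depth) sown with three weed species; herbicide applied before weed emergence.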

Stellaria media [2] = experiment: Test Example 5: herbicidal effect by foliage application, plastic box (symbol P); conditions: 320 g/ha, 3 weeks after application
In short: as §1

corn = experiment: Test Example 5: effect on crop by foliage application, plastic box (symbol c); conditions: 320 g/ha, 3 weeks after application
In short: (§3)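 Box culture: sterile diluvial soil, seeds spot-sown, ~1.5 cm cover, raised under glass at 25–30° C.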

rapeseed = experiment: Test Example 5: effect on crop by foliage application, plastic box (symbol g); conditions: 320 g/ha, 3 weeks after application
In short: as §3

Amaranthus retroflexus = experiment: Test Example 5: herbicidal effect by foliage application, plastic box (symbol N); conditions: 320 g/ha, 3 weeks after application
In short: as §1

Apera spica-venti = experiment: Test Example 4: herbicidal effect by soil treatment (symbol L)
In short: as §2

Chenopodium album [3] = experiment: Test Example 4: herbicidal effect by soil treatment (symbol O)
In short: as §2

[4] = test system: Echinochloa crus-galli var. crus-galli; experiment: Test Example 5: herbicidal effect by foliage application, plastic box (symbol H); conditions: 320 g/ha, 3 weeks after application
In short: as §1

Monochoria vaginalis = experiment: Test Example 1: herbicidal activity, application before weed generation in submerged conditions (symbol C); conditions: application herbicide amount 320 g/ha
In short: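 Greenhouse growth at 25–30 °C lasted 3 weeks after treatment, when each weed was graded 0–5 by herbicidal ratio. Treatment was a diluted emulsion applied to the water surface of 4 cm-submerged alluvial soil on the sowing day.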

Stellaria media [5] = experiment: Test Example 4: herbicidal effect by soil treatment (symbol P)
In short: as §2

Lolium multiflorum Lam. = experiment: Test Example 5: herbicidal effect by foliage application, plastic box (symbol K); conditions: 320 g/ha, 3 weeks after application
In short: as §1

Leptochloa chinensis = experiment: Test Example 3: herbicidal effect by foliage application, Wagner pot (symbol D); conditions: application herbicide amount 320 g/ha
In short: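 Post-emergence, paddy-type test: seedlings 14 d old in shallow-flooded (0.1–0.5 cm) alluvial soil, 25–30 °C greenhouse. Emulsion diluted to target rate, sprayed on leaves. Read-out: visual effect on each species at 3 weeks, per set criteria.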

Veronica persica = experiment: Test Example 4: herbicidal effect by soil treatment (symbol R)
In short: as §2

Abutilon theophrasti = experiment: Test Example 5: herbicidal effect by foliage application, plastic box (symbol M); conditions: 320 g/ha, 3 weeks after application
In short: as §1

Setaria viridis = experiment: Test Example 4: herbicidal effect by soil treatment (symbol G)
In short: as §2

Avena fatua = experiment: Test Example 4: herbicidal effect by soil treatment (symbol I)
In short: as §2

[6] = application herbicide amount 320 g/ha

| Compound | Effect grade on crop, a: transplanted rice plant (transplanted rice plant) | Herbicidal effect grade, C: Monochoria vaginalis (Monochoria vaginalis) | herbicidal effect on D (Leptochloa chinensis), grade 0-5 (Leptochloa chinensis) | O: Chenopodium album, herbicidal effect grade (Chenopodium album [1]) | J (Alopecurus myosuroides) herbicidal effect grade (Alopecurus myosuroides; [6]) | c: corn, effect on crop grade (corn) | g: rapeseed, effect on crop grade (rapeseed) | N: Amaranthus retroflexus, herbicidal effect grade (Amaranthus retroflexus) | L (Apera spica-venti) herbicidal effect grade (Apera spica-venti; [6]) | O (Chenopodium album) herbicidal effect grade (Chenopodium album [3]; [6]) | H: Echinochloa crus-galli var. crus-galli, herbicidal effect grade [4] | P (Stellaria media) herbicidal effect grade (Stellaria media [5]; [6]) | K: Lolium multiflorum Lam., herbicidal effect grade (Lolium multiflorum Lam.) | M: Abutilon theophrasti, herbicidal effect grade (Abutilon theophrasti) | G (Setaria viridis) herbicidal effect grade (Setaria viridis; [6]) | I (Avena fatua) herbicidal effect grade (Avena fatua; [6]) | also measured |
| --- | --- | --- | --- | --- | --- | --- | --- | --- | --- | --- | --- | --- | --- | --- | --- | --- | --- |
| CCCC=CC(=O)OC1=C(c2c(C)cc(C)cc2C)C(=O)C(CC(C)=NOC)C1 (stereo not shown) [1-090] | 5 (Herbicidal ratio of 90% or more (almost completely withered)) | 1 (Herbicidal ratio of 5% or higher and lower than 20%) | 5 (Herbicidal ratio of 90% or more (almost completely withered)) | – | – | – | – | – | – | – | – | – | – | – | – | – | O: Chenopodium album, herbicidal effect (criteria 0-5) (Chenopodium album [1]): 2 (Herbicidal ratio of 20% or higher and lower than 40%); J: Alopecurus myosuroides, herbicidal effect grade (Alopecurus myosuroides; 320 g/ha): 5 (Herbicidal ratio of 90% or more (almost completely withered)); P: Stellaria media, herbicidal effect (criteria 0-5) (Stellaria media [2]): 3 (Herbicidal ratio of 40% or higher and lower than 70%); c: corn, effect on crop (criteria 0-5) (corn): 5 (Herbicidal ratio of 90% or more (almost completely withered)); g: rapeseed, effect on crop (criteria 0-5) (rapeseed): 4 (Herbicidal ratio of 70% or higher and lower than 90%); N: Amaranthus retroflexus, herbicidal effect (criteria 0-5) (Amaranthus retroflexus): 1 (Herbicidal ratio of 5% or higher and lower than 20%); L: Apera spica-venti, herbicidal effect grade (Apera spica-venti; 320 g/ha): 5 (Herbicidal ratio of 90% or more (almost completely withered)); O: Chenopodium album, herbicidal effect grade (Chenopodium album [3]; 320 g/ha): 0 (Herbicidal ratio of 5% or lower (almost no effect)); H: Echinochloa crus-galli var. crus-galli, herbicidal effect (criteria 0-5) [4]: 5 (Herbicidal ratio of 90% or more (almost completely withered)); P: Stellaria media, herbicidal effect grade (Stellaria media [5]; 320 g/ha): 0 (Herbicidal ratio of 5% or lower (almost no effect)); K: Lolium multiflorum Lam., herbicidal effect (criteria 0-5) (Lolium multiflorum Lam.): 5 (Herbicidal ratio of 90% or more (almost completely withered)); R: Veronica persica, herbicidal effect grade (Veronica persica; 320 g/ha): 0 (Herbicidal ratio of 5% or lower (almost no effect)); M: Abutilon theophrasti, herbicidal effect (criteria 0-5) (Abutilon theophrasti): 4 (Herbicidal ratio of 70% or higher and lower than 90%); G: Setaria viridis, herbicidal effect grade (Setaria viridis; 320 g/ha): 5 (Herbicidal ratio of 90% or more (almost completely withered)); I: Avena fatua, herbicidal effect grade (Avena fatua; 320 g/ha): 3 (Herbicidal ratio of 40% or higher and lower than 70%) |
| CC(=O)CC1CC(O)=C(c2c(C)cc(-c3ccc(OC(F)(F)F)cc3)cc2C)C1=O (stereo not shown) [7-016] | – | – | 5 (Herbicidal ratio of 90% or more (almost completely withered)) | – | – | – | – | – | – | – | – | – | – | – | – | – | O: Chenopodium album, herbicidal effect (criteria of Test Example 1) (Chenopodium album [1]): 0 (Herbicidal ratio of 5% or lower (almost no effect)); Herbicidal effect grade, J: Alopecurus myosuroides (Alopecurus myosuroides; [6]): 0 (Herbicidal ratio of 5% or lower (almost no effect)); P: Stellaria media, herbicidal effect (criteria of Test Example 1) (Stellaria media [2]): 0 (Herbicidal ratio of 5% or lower (almost no effect)); c: corn, effect on crop (criteria of Test Example 1) (corn): 0 (Herbicidal ratio of 5% or lower (almost no effect)); g: rapeseed, effect on crop (criteria of Test Example 1) (rapeseed): 0 (Herbicidal ratio of 5% or lower (almost no effect)); N: Amaranthus retroflexus, herbicidal effect (criteria of Test Example 1) (Amaranthus retroflexus): 0 (Herbicidal ratio of 5% or lower (almost no effect)); Herbicidal effect grade, L: Apera spica-venti (Apera spica-venti; [6]): 0 (Herbicidal ratio of 5% or lower (almost no effect)); Herbicidal effect grade, O: Chenopodium album (Chenopodium album [3]; [6]): 0 (Herbicidal ratio of 5% or lower (almost no effect)); H: Echinochloa crus-galli var. crus-galli, herbicidal effect (criteria of Test Example 1) [4]: 1 (Herbicidal ratio of 5% or higher and lower than 20%); Herbicidal effect grade, P: Stellaria media (Stellaria media [5]; [6]): 0 (Herbicidal ratio of 5% or lower (almost no effect)); K: Lolium multiflorum Lam., herbicidal effect (criteria of Test Example 1) (Lolium multiflorum Lam.): 0 (Herbicidal ratio of 5% or lower (almost no effect)); Herbicidal effect grade, R: Veronica persica (Veronica persica; [6]): 0 (Herbicidal ratio of 5% or lower (almost no effect)); M: Abutilon theophrasti, herbicidal effect (criteria of Test Example 1) (Abutilon theophrasti): 0 (Herbicidal ratio of 5% or lower (almost no effect)); Herbicidal effect grade, G: Setaria viridis (Setaria viridis; [6]): 2 (Herbicidal ratio of 20% or higher and lower than 40%); Herbicidal effect grade, I: Avena fatua (Avena fatua; [6]): 0 (Herbicidal ratio of 5% or lower (almost no effect)) |
| COCCOC1=C(c2c(C)cc(C)cc2C)C(=O)C(CC(C)=NOC)C1 (stereo not shown) [1-037] | 0 (Herbicidal ratio of 5% or lower (almost no effect)) | 0 (Herbicidal ratio of 5% or lower (almost no effect)) | 0 (Herbicidal ratio of 5% or lower (almost no effect)) | 0 (Herbicidal ratio of 5% or lower (almost no effect)) | 0 (Herbicidal ratio of 5% or lower (almost no effect)) | 0 (Herbicidal ratio of 5% or lower (almost no effect)) | 0 (Herbicidal ratio of 5% or lower (almost no effect)) | 0 (Herbicidal ratio of 5% or lower (almost no effect)) | 0 (Herbicidal ratio of 5% or lower (almost no effect)) | 0 (Herbicidal ratio of 5% or lower (almost no effect)) | 0 (Herbicidal ratio of 5% or lower (almost no effect)) | 0 (Herbicidal ratio of 5% or lower (almost no effect)) | 0 (Herbicidal ratio of 5% or lower (almost no effect)) | 0 (Herbicidal ratio of 5% or lower (almost no effect)) | 0 (Herbicidal ratio of 5% or lower (almost no effect)) | 0 (Herbicidal ratio of 5% or lower (almost no effect)) | – |
| CON=C(C)CC1CC(OC(=O)C(C)Cl)=C(c2c(C)cc(C)cc2C)C1=O (stereo not shown) [1-042] | 5 (Herbicidal ratio of 90% or more (almost completely withered)) | 4 (Herbicidal ratio of 70% or higher and lower than 90%) | 5 (Herbicidal ratio of 90% or more (almost completely withered)) | 0 (Herbicidal ratio of 5% or lower (almost no effect)) | 5 (Herbicidal ratio of 90% or more (almost completely withered)) | 4 (Herbicidal ratio of 70% or higher and lower than 90%) | 4 (Herbicidal ratio of 70% or higher and lower than 90%) | 0 (Herbicidal ratio of 5% or lower (almost no effect)) | 5 (Herbicidal ratio of 90% or more (almost completely withered)) | 0 (Herbicidal ratio of 5% or lower (almost no effect)) | 5 (Herbicidal ratio of 90% or more (almost completely withered)) | 0 (Herbicidal ratio of 5% or lower (almost no effect)) | 5 (Herbicidal ratio of 90% or more (almost completely withered)) | 3 (Herbicidal ratio of 40% or higher and lower than 70%) | 5 (Herbicidal ratio of 90% or more (almost completely withered)) | 3 (Herbicidal ratio of 40% or higher and lower than 70%) | P: Stellaria media, herbicidal effect grade (Stellaria media [2]): 0 (Herbicidal ratio of 5% or lower (almost no effect)) |
